Results from US20260234147A1 (priority 2023, published 2026).
Read-outs that look alike come from different tables or passages of the source.

Columns and labels:
hDOR = hDOR (Homo sapiens, UniProt P41143); experiment: Radioligand binding assay (Eurofins Cerep), [3H]DADLE displacement
[1] = Metabolic stability in rat liver microsomes; assay type: in vitro ADME; conditions: rat liver microsomes 1 mg/ml, substrate 1 μM, NADPH, 37° C.
Method: In vitro metabolic stability of each compound was determined using rat liver microsomes in triplicate. Verapamil was used as a positive control to check the activity of the microsomes. The incubation mixtures consisted of rat liver microsomes (1 mg microsomal protein/ml), substrate (1 μM), and reduced NADPH (1 mM) in a total volume of 0.4 ml potassium phosphate buffer (50 mM, pH 7.4). Reactions were initiated with the addition of NADPH and kept in an incubator shaker at 37° C. Aliquots of 25 μl were withdrawn at 0, 5, 10, 15, 30, and 60 min and mixed with 125 μl of acetonitrile with formic acid (0.1% v/v) containing phenacetin (50 ng/ml; internal standard) for the termination of the reaction. The samples were then vortex mixed and filtered through a […] 96-well membrane filtration plate under centrifugation at speed of 2000×g for 5 min at 4° C. The filtrates were subjected to UPLC-mass spectrometry (MS/MS) analysis.
The intrinsic clearance of the compounds was calculated using a half-life employing the ‘substrate depletion’ approach. The apparent half-life was calculated from the pseudo-first-order rate constants obtained by linear regression of log (concentration) and time plots. The in vitro intrinsic clearance of IFN was estimated using the formula: […]
Where k is the slope of the line obtained by plotting the natural logarithmic of the percentage of parent remaining versus time and V is the volume of incubation.
The in vitro intrinsic clearance was scaled to whole-organ (hepatic) in vivo intrinsic CL (CLint,H) using the scaling factors available in the literature using equation (Mahmood I. Application of allometric principles for the prediction of pharmacokinetics in human and veterinary drug development. Advanced drug delivery reviews, 2007, 59(11), 1177-1192)
MPPGL represents the microsomal protein per gram of Sprague Dawley rat liver (45 mg/g) and liver weight per kg body weight was 40 g/kg.

hKOR = hKOR (Homo sapiens, UniProt P41145); experiment: Radioligand binding assay (Eurofins Cerep), [3H]U69,593 displacement
hMOR [2] = molecular target: T1, hMOR (Homo sapiens, UniProt P35372); experiment: Cyclic adenosine 3′,5′-monophosphate (cAMP) assay in hMOR-CHO cells; assay type: cell-based; conditions: N=1, control agonist DAMGO
α2A adrenergic receptor = molecular target: T2, α2A adrenergic receptor (Homo sapiens, UniProt P08913); experiment: Radioligand binding assay (Eurofins Cerep), [3H]RX 821002 displacement
T2 construct: Eurofins Cerep (contract screening)
T2 sequence (P08913 1-465): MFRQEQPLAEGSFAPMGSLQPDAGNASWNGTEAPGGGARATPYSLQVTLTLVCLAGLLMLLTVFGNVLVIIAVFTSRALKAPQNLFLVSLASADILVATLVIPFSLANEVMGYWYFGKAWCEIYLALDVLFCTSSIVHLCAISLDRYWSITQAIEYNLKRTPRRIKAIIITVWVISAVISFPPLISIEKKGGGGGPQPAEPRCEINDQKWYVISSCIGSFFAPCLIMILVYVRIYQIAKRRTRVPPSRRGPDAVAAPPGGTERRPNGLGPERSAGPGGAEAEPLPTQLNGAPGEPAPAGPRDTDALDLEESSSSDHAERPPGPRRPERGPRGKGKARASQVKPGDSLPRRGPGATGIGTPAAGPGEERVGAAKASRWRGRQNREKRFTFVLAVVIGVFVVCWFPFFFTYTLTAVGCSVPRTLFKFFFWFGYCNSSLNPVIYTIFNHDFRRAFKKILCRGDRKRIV

hMOR [3] = molecular target: T1, hMOR; experiment: Radioligand binding assay (Eurofins Cerep), [3H]DAMGO displacement
hMOR [4] = molecular target: T1, hMOR; experiment: cell-based; design: expressed in transfected cells; conditions: for Emax: CHO
α2C adrenergic receptor = molecular target: T3, α2C adrenergic receptor (Homo sapiens, UniProt P18825); experiment: Radioligand binding assay (Eurofins Cerep), [3H]RX 821002 displacement; conditions: Ki (nM ± SEM) a2C-AR, 3 independent experiments
T3 construct: Eurofins Cerep (contract screening)
T3 sequence (P18825 1-462): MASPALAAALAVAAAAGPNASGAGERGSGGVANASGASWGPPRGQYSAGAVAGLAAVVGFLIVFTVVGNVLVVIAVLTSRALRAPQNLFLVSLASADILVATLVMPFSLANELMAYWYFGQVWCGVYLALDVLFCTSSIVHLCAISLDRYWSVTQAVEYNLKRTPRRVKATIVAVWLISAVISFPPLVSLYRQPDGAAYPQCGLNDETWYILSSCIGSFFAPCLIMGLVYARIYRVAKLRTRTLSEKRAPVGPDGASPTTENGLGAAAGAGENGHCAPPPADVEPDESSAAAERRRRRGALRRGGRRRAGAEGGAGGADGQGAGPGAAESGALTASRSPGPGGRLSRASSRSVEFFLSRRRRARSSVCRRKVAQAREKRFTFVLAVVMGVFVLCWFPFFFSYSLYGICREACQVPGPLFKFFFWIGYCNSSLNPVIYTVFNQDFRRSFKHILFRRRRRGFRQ

hKOR, sequence (P41145 whole entry): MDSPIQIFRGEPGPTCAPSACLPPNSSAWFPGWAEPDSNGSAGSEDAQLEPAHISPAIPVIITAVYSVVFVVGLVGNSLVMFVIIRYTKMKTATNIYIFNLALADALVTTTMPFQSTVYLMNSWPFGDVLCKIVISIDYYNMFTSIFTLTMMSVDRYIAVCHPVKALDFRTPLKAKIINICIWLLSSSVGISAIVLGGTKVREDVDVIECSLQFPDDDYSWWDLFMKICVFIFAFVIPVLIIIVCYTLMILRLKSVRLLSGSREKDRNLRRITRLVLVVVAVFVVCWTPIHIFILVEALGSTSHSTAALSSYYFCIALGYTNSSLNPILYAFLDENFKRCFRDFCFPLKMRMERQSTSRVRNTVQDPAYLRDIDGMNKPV
hDOR, sequence (P41143 whole entry): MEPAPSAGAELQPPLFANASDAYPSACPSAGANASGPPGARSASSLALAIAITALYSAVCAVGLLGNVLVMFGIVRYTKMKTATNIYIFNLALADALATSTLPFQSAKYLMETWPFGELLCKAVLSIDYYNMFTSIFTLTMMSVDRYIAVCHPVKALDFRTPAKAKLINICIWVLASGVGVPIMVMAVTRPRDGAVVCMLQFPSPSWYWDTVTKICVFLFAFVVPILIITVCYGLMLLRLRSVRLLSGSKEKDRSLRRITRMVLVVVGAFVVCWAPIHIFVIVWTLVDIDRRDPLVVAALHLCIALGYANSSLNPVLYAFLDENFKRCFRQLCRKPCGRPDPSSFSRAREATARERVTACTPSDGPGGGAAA
T1 sequence (P35372 whole entry): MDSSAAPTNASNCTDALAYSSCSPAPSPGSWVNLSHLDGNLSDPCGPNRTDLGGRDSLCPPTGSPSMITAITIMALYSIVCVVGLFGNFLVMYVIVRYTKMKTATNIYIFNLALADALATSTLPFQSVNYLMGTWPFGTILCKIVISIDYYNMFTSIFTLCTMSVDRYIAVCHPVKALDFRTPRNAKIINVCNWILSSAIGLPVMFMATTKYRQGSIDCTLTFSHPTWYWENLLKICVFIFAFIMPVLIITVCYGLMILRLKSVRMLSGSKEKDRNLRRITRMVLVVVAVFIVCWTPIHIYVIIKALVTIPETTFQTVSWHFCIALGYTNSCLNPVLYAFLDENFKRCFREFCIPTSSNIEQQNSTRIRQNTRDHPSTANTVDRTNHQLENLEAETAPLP

SMILES: CC[C@@H]1CN2CCc3c([nH]c4cccc(OC)c34)[C@@H]2C[C@@H]1/C(=C\OC)C(=O)N(C)C1CCCC1
- Ki (hDOR; Table A1, data summary #1, read-out: DOR Ki ± SEM): 9750 ± 452 nM
- Ki (hDOR; Table A4, data summary #2, read-out: DOR Ki ± SEM): 6930 ± 1340 nM
- RLM stability [1]: <5 min
- Ki (hKOR; Table A1, data summary #1, read-out: KOR Ki ± SEM): 4600 ± 132 nM
- Ki (hKOR; Table A4, data summary #2, read-out: KOR Ki ± SEM): 4600 ± 132 nM
- functional activity in cAMP assay (hMOR [2]): antagonists
- functional activity in cAMP assay (hMOR [2]; listed as SUSM 522): antagonist
- Ki (α2A adrenergic receptor; Table A4, data summary #2, read-out: Alpha2A Ki ± SEM): 510 ± 82 nM
- Ki (hMOR [3]; Table A4, data summary #2, read-out: MOR Ki ± SEM): 68 ± 7 nM
- Ki (hMOR [3]; read-out: Ki at hMOR): 67.8 nM

SMILES: COC(=O)CC1CCN(CCc2c[nH]c3ccccc23)CC1 [Compound 3-24]
- Ki (hDOR; Table 3-1, 3 independent experiments, read-out: Ki (nM ± SEM) DOR): > 10000 nM
- Ki (hDOR; Table 3-2, 3 independent experiments, read-out: Ki (nM ± SEM) DOR): > 10000 nM
- Ki (hDOR; Table 3-3, 3 independent experiments, read-out: Ki (nM ± SEM) DOR): > 10000 nM
- Ki (hDOR; Table 3-4, 3 independent experiments, read-out: Ki (nM ± SEM) DOR): > 10000 nM
- Ki (hDOR; Table 3-5, 3 independent experiments, read-out: Ki (nM ± SEM) DOR): > 10000 nM
- Ki (hDOR; Table 3-6, 3 independent experiments, read-out: Ki (nM ± SEM) DOR): > 10000 nM
- functional character at MOR (hMOR [4]): low, but measurable, partial agonist activity
- Emax (hMOR [4]; read-out: MOR Emax ± SEM (%)): 23.8 ± 6.7%
- Emax (hMOR [4]; read-out: Emax at MOR (FIG. 1)): 24%
- EC50 (hMOR [4]; read-out: MOR EC50 ± SEM): 1220 nM
- Ki (α2C adrenergic receptor; Table 3-2): > 10000 nM
- Ki (α2C adrenergic receptor; Table 3-3): > 10000 nM
- Ki (α2C adrenergic receptor; Table 3-4): > 10000 nM
- Ki (α2C adrenergic receptor; Table 3-5): > 10000 nM
- Ki (α2C adrenergic receptor; Table 3-6): > 10000 nM
- Ki (hKOR; Table 3-1, 3 independent experiments, read-out: Ki (nM ± SEM) KOR): > 10000 nM
- Ki (hKOR; Table 3-2, 3 independent experiments, read-out: Ki (nM ± SEM) KOR): > 10000 nM
- Ki (hKOR; Table 3-3, 3 independent experiments, read-out: Ki (nM ± SEM) KOR): > 10000 nM
- Ki (hKOR; Table 3-4, 3 independent experiments, read-out: Ki (nM ± SEM) KOR): > 10000 nM
- Ki (hKOR; Table 3-5, 3 independent experiments, read-out: Ki (nM ± SEM) KOR): > 10000 nM
- Ki (hKOR; Table 3-6, 3 independent experiments, read-out: Ki (nM ± SEM) KOR): > 10000 nM
- Ki (α2A adrenergic receptor; Ki (nM ± SEM) a2A-AR, Table 3-1, 3 independent experiments): 1410 ± 122 nM
- Ki (α2A adrenergic receptor; Ki (nM ± SEM) a2A-AR, Table 3-2, 3 independent experiments): 1410 ± 122 nM
- Ki (α2A adrenergic receptor; Ki (nM ± SEM) a2A-AR, Table 3-3, 3 independent experiments): 1410 ± 122 nM
- Ki (α2A adrenergic receptor; Ki (nM ± SEM) a2A-AR, Table 3-4, 3 independent experiments): 1410 ± 122 nM
- Ki (α2A adrenergic receptor; Ki (nM ± SEM) a2A-AR, Table 3-6, 3 independent experiments): 1410 ± 122 nM
- Ki (α2A adrenergic receptor; Ki (nM ± SEM) a2A-ar, Table 3-5, 3 independent experiments): 1410 ± 122 nM
- SR: Selectivity Ratio (KiMOR/Kiα2A) (hMOR [3]; Table 3-1): 1.58
- Ki (hMOR [3]; Table 3-1, 3 independent experiments, read-out: Ki (nM ± SEM) MOR): 2230 ± 42.6 nM
- SR: Selectivity Ratio (KiMOR/Kiα2A) (hMOR [3]; Table 3-2): 1.58
- Ki (hMOR [3]; Table 3-2, 3 independent experiments, read-out: Ki (nM ± SEM) MOR): 2230 ± 42.6 nM
- SR: Selectivity Ratio (KiMOR/Kiα2A) (hMOR [3]; Table 3-3): 1.58
- Ki (hMOR [3]; Table 3-3, 3 independent experiments, read-out: Ki (nM ± SEM) MOR): 2230 ± 42.6 nM
- SR: Selectivity Ratio (KiMOR/Kiα2A) (hMOR [3]; Table 3-4): 1.58
- Ki (hMOR [3]; Table 3-4, 3 independent experiments, read-out: Ki (nM ± SEM) MOR): 2230 ± 42.6 nM
- SR: Selectivity Ratio (KiMOR/Kiα2A) (hMOR [3]; Table 3-5): 1.58
- Ki (hMOR [3]; Table 3-5, 3 independent experiments, read-out: Ki (nM ± SEM) MOR): 2230 ± 42.6 nM
- SR: Selectivity Ratio (KiMOR/Kiα2A) (hMOR [3]; Table 3-6): 1.58
- Ki (hMOR [3]; Table 3-6, 3 independent experiments, read-out: Ki (nM ± SEM) MOR): 2230 ± 42.6 nM
- Ki (hMOR [3]; Table 3-7, human MOR, read-out: MOR Ki (nM ± SEM)): 2230 ± 43 nM
